According to ChEMBL document CHEMBL1143780, “Towards erythropoietin mimicking small molecules” (Bioorg Med Chem Lett, 2007):
Activity calls are given as the source filed them. The rule behind the calls is not given here.

Columns and labels:
BaF3 [1] = assay: Effect on proliferation in wild type BaF3 cells; type: functional, cell-based; details: Homo sapiens
BaF3 [2] = assay: Effect on proliferation in BaF3 EPOr cells; type: functional, cell-based; details: Homo sapiens

In the case of `COc1ccc(C(=O)/C=C/c2ccc(N3C[C@H](CNC(C)=O)OC3=O)cc2)cc1`, the Activity (BaF3 [1]) is reported as “Active” and the Activity (BaF3 [2]) is reported as “Active”.
